According to patent publication US12383545B1, “Treatment of migraine” (priority 2018, dated 2025):

System: patients with migraine (4 to 14 migraine/probable migraine headache days)
Experiment: Example 5: randomized double-blind placebo-controlled 12-week dose-regimen study (QD and BID), migraine/probable migraine (MPM) headache days efficacy
Type: in vivo, human
Conditions: for At Least 50% Reduction in Mean Monthly MPM Headache Days, Non-responders / At Least 50% Reduction in Mean Monthly MPM Headache Days, Odds ratio vs. Placebo / At Least 50% Reduction in Mean Monthly MPM Headache Days, Responders / Change from Baseline in Mean Monthly Acute Medication Use Days, CFB MMRM LS Mean / Change from Baseline in Mean Monthly Acute Medication Use Days, CGP vs. Placebo LSMD / Change from Baseline in Mean Monthly Headache Days, CFB MMRM LS Mean / Change from Baseline in Mean Monthly Headache Days, CGP vs. Placebo LSMD / Change from Baseline in Mean Monthly MPM Headache Days, CFB MMRM LS Mean / Change from Baseline in Mean Monthly MPM Headache Days, CGP vs. Placebo LSMD: across the 12-Week Treatment Period, mITT Population; for Non-responders (at least 100% reduction in mean monthly MPM headache days not met), (%) / Non-responders (at least 100% reduction in mean monthly MPM headache days not met), n / Odds ratio vs. Placebo, at least 100% reduction in mean monthly MPM headache days / Responders (at least 100% reduction in mean monthly MPM headache days), (%) / Responders (at least 100% reduction in mean monthly MPM headache days), n: Weeks 1-4, mITT population
Method: In a multicenter, randomized, double-blind, placebo-controlled, parallel-group study designed to evaluate the efficacy, safety, and tolerability of multiple doses and doses regimens of atogepant for the prevention of migraine. The patients were randomized (2:1:2:1:2:1) to 1 of 6 treatment groups: placebo, atogepant 10 mg QD, atogepant 30 mg QD, atogepant 30 mg BID, atogepant 60 mg QD, and atogepant 60 mg BID.
This study consisted of a 4-week screening and baseline period and a 12-week double-blind treatment period, which was followed by a 4-week safety follow-up period. Total study duration is 20-weeks.
To be randomized, eligible patients had to be 18 to 75 years of age (inclusive), have a history of migraine with or without aura for at least 1 year consistent with a diagnosis according to the International Classification of Headache Disorders criteria, 3rd edition, beta version, have experienced 4 to 14 migraine/probable migraine headache days and <15 headache days in the 28-day baseline period. Patients who had clinically significant hematologic, endocrine, cardiovascular, cerebrovascular, pulmonary, renal, hepatic, gastrointestinal, or neurologic disease were excluded from the study.
A total of 834 patients were randomized to double-blind treatment (ITT population), and 825 patients took at least 1 dose of double-blind IP (safety population). […] The primary efficacy variable was the change from baseline in mean monthly migraine/probable migraine headache days across the 12-week treatment period. The secondary efficacy variables were the change from baseline in mean monthly headache days across the 12-week treatment period, proportion of patients with at least a 50% reduction in mean monthly migraine/probable migraine headache days across the 12-week treatment period, and the change from baseline in mean monthly acute medication use days across the 12-week treatment period.

C[C@@H]1[C@H](c2c(F)ccc(F)c2F)C[C@H](NC(=O)c2cnc3c(c2)C[C@@]2(C3)C(=O)Nc3ncccc32)C(=O)N1CC(F)(F)F [atogepant]
At Least 50% Reduction in Mean Monthly MPM Headache Days, Non-responders (Atogepant 10 mg QD): 39 (42.4) n (%) | At Least 50% Reduction in Mean Monthly MPM Headache Days, Odds ratio vs. Placebo (Atogepant 10 mg QD): 1.50 | At Least 50% Reduction in Mean Monthly MPM Headache Days, Responders (Atogepant 10 mg QD): 53 (57.6) n (%) | Change from Baseline in Mean Monthly Acute Medication Use Days, CFB MMRM LS Mean (Atogepant 10 mg QD): -3.71 days | Change from Baseline in Mean Monthly Acute Medication Use Days, CGP vs. Placebo LSMD (Atogepant 10 mg QD): -1.30 days | Change from Baseline in Mean Monthly Headache Days, CFB MMRM LS Mean (Atogepant 10 mg QD): -4.31 days | Change from Baseline in Mean Monthly Headache Days, CGP vs. Placebo LSMD (Atogepant 10 mg QD): -1.38 days | Change from Baseline in Mean Monthly MPM Headache Days, CFB MMRM LS Mean (Atogepant 10 mg QD): -4.00 days | Change from Baseline in Mean Monthly MPM Headache Days, CGP vs. Placebo LSMD (Atogepant 10 mg QD): -1.15 days | At Least 50% Reduction in Mean Monthly MPM Headache Days, Non-responders (Atogepant 30 mg BID): 33 (41.8) n (%) | At Least 50% Reduction in Mean Monthly MPM Headache Days, Odds ratio vs. Placebo (Atogepant 30 mg BID): 1.83 | At Least 50% Reduction in Mean Monthly MPM Headache Days, Responders (Atogepant 30 mg BID): 46 (58.2) n (%) | Change from Baseline in Mean Monthly Acute Medication Use Days, CFB MMRM LS Mean (Atogepant 30 mg BID): -3.77 days | Change from Baseline in Mean Monthly Acute Medication Use Days, CGP vs. Placebo LSMD (Atogepant 30 mg BID): -1.35 days | Change from Baseline in Mean Monthly Headache Days, CFB MMRM LS Mean (Atogepant 30 mg BID): -4.23 days | Change from Baseline in Mean Monthly Headache Days, CGP vs. Placebo LSMD (Atogepant 30 mg BID): -1.30 days | Change from Baseline in Mean Monthly MPM Headache Days, CFB MMRM LS Mean (Atogepant 30 mg BID): -4.23 days | Change from Baseline in Mean Monthly MPM Headache Days, CGP vs. Placebo LSMD (Atogepant 30 mg BID): -1.39 days | At Least 50% Reduction in Mean Monthly MPM Headache Days, Non-responders (Atogepant 30 mg QD): 85 (46.7) n (%) | At Least 50% Reduction in Mean Monthly MPM Headache Days, Odds ratio vs. Placebo (Atogepant 30 mg QD): 1.46 | At Least 50% Reduction in Mean Monthly MPM Headache Days, Responders (Atogepant 30 mg QD): 97 (53.3) n (%) | Change from Baseline in Mean Monthly Acute Medication Use Days, CFB MMRM LS Mean (Atogepant 30 mg QD): -3.86 days | Change from Baseline in Mean Monthly Acute Medication Use Days, CGP vs. Placebo LSMD (Atogepant 30 mg QD): -1.44 days | Change from Baseline in Mean Monthly Headache Days, CFB MMRM LS Mean (Atogepant 30 mg QD): -4.17 days | Change from Baseline in Mean Monthly Headache Days, CGP vs. Placebo LSMD (Atogepant 30 mg QD): -1.24 days | Change from Baseline in Mean Monthly MPM Headache Days, CFB MMRM LS Mean (Atogepant 30 mg QD): -3.76 days | Change from Baseline in Mean Monthly MPM Headache Days, CGP vs. Placebo LSMD (Atogepant 30 mg QD): -0.91 days | At Least 50% Reduction in Mean Monthly MPM Headache Days, Non-responders (Atogepant 60 mg BID): 33 (37.9) n (%) | At Least 50% Reduction in Mean Monthly MPM Headache Days, Odds ratio vs. Placebo (Atogepant 60 mg BID): 2.03 | At Least 50% Reduction in Mean Monthly MPM Headache Days, Responders (Atogepant 60 mg BID): 54 (62.1) n (%) | Change from Baseline in Mean Monthly Acute Medication Use Days, CFB MMRM LS Mean (Atogepant 60 mg BID): -3.64 days | Change from Baseline in Mean Monthly Acute Medication Use Days, CGP vs. Placebo LSMD (Atogepant 60 mg BID): -1.22 days | Change from Baseline in Mean Monthly Headache Days, CFB MMRM LS Mean (Atogepant 60 mg BID): -4.32 days | Change from Baseline in Mean Monthly Headache Days, CGP vs. Placebo LSMD (Atogepant 60 mg BID): -1.39 days | Change from Baseline in Mean Monthly MPM Headache Days, CFB MMRM LS Mean (Atogepant 60 mg BID): -4.14 days | Change from Baseline in Mean Monthly MPM Headache Days, CGP vs. Placebo LSMD (Atogepant 60 mg BID): -1.29 days | At Least 50% Reduction in Mean Monthly MPM Headache Days, Non-responders (Atogepant 60 mg QD): 85 (48.0) n (%) | At Least 50% Reduction in Mean Monthly MPM Headache Days, Odds ratio vs. Placebo (Atogepant 60 mg QD): 1.42 | At Least 50% Reduction in Mean Monthly MPM Headache Days, Responders (Atogepant 60 mg QD): 92 (52.0) n (%) | Change from Baseline in Mean Monthly Acute Medication Use Days, CFB MMRM LS Mean (Atogepant 60 mg QD): -3.53 days | Change from Baseline in Mean Monthly Acute Medication Use Days, CGP vs. Placebo LSMD (Atogepant 60 mg QD): -1.11 days | Change from Baseline in Mean Monthly Headache Days, CFB MMRM LS Mean (Atogepant 60 mg QD): -3.86 days | Change from Baseline in Mean Monthly Headache Days, CGP vs. Placebo LSMD (Atogepant 60 mg QD): -0.94 days | Change from Baseline in Mean Monthly MPM Headache Days, CFB MMRM LS Mean (Atogepant 60 mg QD): -3.55 days | Change from Baseline in Mean Monthly MPM Headache Days, CGP vs. Placebo LSMD (Atogepant 60 mg QD): -0.70 days | Non-responders (at least 100% reduction in mean monthly MPM headache days not met), (%) (Atogepant 10 mg QD (N = 92)): (81.5) % | Non-responders (at least 100% reduction in mean monthly MPM headache days not met), n (Atogepant 10 mg QD (N = 92)): 75 | Odds ratio vs. Placebo, at least 100% reduction in mean monthly MPM headache days (Atogepant 10 mg QD (N = 92)): 6.39 | Responders (at least 100% reduction in mean monthly MPM headache days), (%) (Atogepant 10 mg QD (N = 92)): (18.5) % | Responders (at least 100% reduction in mean monthly MPM headache days), n (Atogepant 10 mg QD (N = 92)): 17 | Non-responders (at least 100% reduction in mean monthly MPM headache days not met), (%) (Atogepant 30 mg BID (N = 79)): (83.5) % | Non-responders (at least 100% reduction in mean monthly MPM headache days not met), n (Atogepant 30 mg BID (N = 79)): 66 | Odds ratio vs. Placebo, at least 100% reduction in mean monthly MPM headache days (Atogepant 30 mg BID (N = 79)): 5.23 | Responders (at least 100% reduction in mean monthly MPM headache days), (%) (Atogepant 30 mg BID (N = 79)): (16.5) % | Responders (at least 100% reduction in mean monthly MPM headache days), n (Atogepant 30 mg BID (N = 79)): 13 | Non-responders (at least 100% reduction in mean monthly MPM headache days not met), (%) (Atogepant 30 mg QD (N = 182)): (80.2) % | Non-responders (at least 100% reduction in mean monthly MPM headache days not met), n (Atogepant 30 mg QD (N = 182)): 146 | Odds ratio vs. Placebo, at least 100% reduction in mean monthly MPM headache days (Atogepant 30 mg QD (N = 182)): 7.05 | Responders (at least 100% reduction in mean monthly MPM headache days), (%) (Atogepant 30 mg QD (N = 182)): (19.8) % | Responders (at least 100% reduction in mean monthly MPM headache days), n (Atogepant 30 mg QD (N = 182)): 36
